Experimental data taken from US20250215460A1, “MICROBIAL […] THE CONVERSION OF CARBOHYDRATES” (Ohio State Innovation Foundation, priority 2022, published 2025).

Columns and labels:
[1] = test system: C. tyrobutyricum Δcat1::adhE2; assay: Batch fermentation of glucose in serum bottles with methyl viologen added; assay type: cell-based, Clostridium tyrobutyricum
From the text: Artificial electron carriers such as methyl viologen, benzyl viologen and neutral red have been used in solventogenic clostridia to increase butanol production through diverting electron flow towards NADH formation accompanied by decreased hydrogen production. An artificial electron carrier, such as methyl viologen (MV) and benzyl viologen (BV), was used to inhibit hydrogen production and increase NADH pool and butanol production by C. tyrobutyricum expressing adhE2. C. tyrobutyricum Δcat1::adhE2 was cultured in Clostridia Growth Medium (CGM) containing glucose as the carbon source in serum bottles at 37° C. The medium pH was buffered at ˜5.5 with CaCO3. At 24 h after initial seeding the bottles, methyl viologen was added at various concentrations (up to 1000 μM) to study its effects on cell growth and butanol production. […] The highest butanol yield and productivity were obtained at 500 μM MV. Similar results can also be achieved with other electron carriers such as benzyl viologen and neutral red.

[2] = test system: C. tyrobutyricum Δcat1::adhE2; assay: Batch fermentations of glucose and xylose in bioreactors at pH 6.0 with methyl viologen; assay type: cell-based, Clostridium tyrobutyricum
Procedure: Batch fermentations of glucose and xylose by C. tyrobutyricum Δcat1::adhE2 were studied in bioreactors at pH 6.0 in the presence of methyl viologen (MV) at various concentrations (0 μM, 200 μM, 500 μM, 1000 μM). For glucose fermentation, MV was added at 12 h after inoculation. […] The fermentation time course data are shown in FIGS. 11A-11H and the effects of MV on cell growth and fermentation kinetics are illustrated in FIG. 12. […] Similar trends were also observed with xylose as the substrate at 200 μM MV. […] The results also indicate that biomass hydrolysate sugars including glucose and xylose can be used simultaneously and converted to butanol by engineered C. tyrobutyricum expressing adhE2.

C[n+]1ccc(-c2cc[n+](C)cc2)cc1 [MV, methyl viologen]
Effect on acetate and butanol production from glucose ([1]; MV up to 1000 μM added at 24 h, pH ~5.5, 37° C.): dramatically reduced acetate production and increased butanol production
MV concentration at which lactate was also produced as a byproduct ([1]; glucose, pH ~5.5): ≥ 200 µM
MV concentration giving the highest butanol yield and productivity ([1]; glucose, pH ~5.5): 500 µM
Toxicity to cells, xylose compared to glucose ([2]; bioreactor, pH 6.0): more toxic to cells grown on xylose
Effect on product formation with increasing MV concentration ([2]; glucose as substrate, MV 0-1000 μM added at 12 h, pH 6.0): butanol and lactate production increased while acetate and butyrate production decreased
Effect on cell growth and fermentation ([2]; xylose as substrate, 500 μM and 1000 μM MV added at 24 h, pH 6.0): completely inhibited cell growth and stopped fermentation
Effect on cell growth and fermentation (figure legend) ([2]; xylose fermentation, 500 mM and 1000 mM MV, addition delayed to 24 h): completely inhibited cell growth and fermentation
